What was measured:
[1] = target: T1, Nav1.7-P610T (Homo sapiens, UniProt Q15858, P610T); experiment: automated patch-clamp, steady-state inactivation shift with […] s pre-pulse; format: cell-based
T1 construct: gene SCN9A; P610T plasmid transfected in HEK293 cells

[2] = target: T2, Nav1.7 (Homo sapiens, UniProt Q15858); experiment: automated whole-cell patch-clamp (Qube-384), IC50 at -90 mV holding-potential; format: cell-based
T2 construct: gene SCN9A; human Nav1.7 stably expressed in HEK293 cells; with SCN1B (human, co-transfected)
T2 sequence (Q15858 whole entry): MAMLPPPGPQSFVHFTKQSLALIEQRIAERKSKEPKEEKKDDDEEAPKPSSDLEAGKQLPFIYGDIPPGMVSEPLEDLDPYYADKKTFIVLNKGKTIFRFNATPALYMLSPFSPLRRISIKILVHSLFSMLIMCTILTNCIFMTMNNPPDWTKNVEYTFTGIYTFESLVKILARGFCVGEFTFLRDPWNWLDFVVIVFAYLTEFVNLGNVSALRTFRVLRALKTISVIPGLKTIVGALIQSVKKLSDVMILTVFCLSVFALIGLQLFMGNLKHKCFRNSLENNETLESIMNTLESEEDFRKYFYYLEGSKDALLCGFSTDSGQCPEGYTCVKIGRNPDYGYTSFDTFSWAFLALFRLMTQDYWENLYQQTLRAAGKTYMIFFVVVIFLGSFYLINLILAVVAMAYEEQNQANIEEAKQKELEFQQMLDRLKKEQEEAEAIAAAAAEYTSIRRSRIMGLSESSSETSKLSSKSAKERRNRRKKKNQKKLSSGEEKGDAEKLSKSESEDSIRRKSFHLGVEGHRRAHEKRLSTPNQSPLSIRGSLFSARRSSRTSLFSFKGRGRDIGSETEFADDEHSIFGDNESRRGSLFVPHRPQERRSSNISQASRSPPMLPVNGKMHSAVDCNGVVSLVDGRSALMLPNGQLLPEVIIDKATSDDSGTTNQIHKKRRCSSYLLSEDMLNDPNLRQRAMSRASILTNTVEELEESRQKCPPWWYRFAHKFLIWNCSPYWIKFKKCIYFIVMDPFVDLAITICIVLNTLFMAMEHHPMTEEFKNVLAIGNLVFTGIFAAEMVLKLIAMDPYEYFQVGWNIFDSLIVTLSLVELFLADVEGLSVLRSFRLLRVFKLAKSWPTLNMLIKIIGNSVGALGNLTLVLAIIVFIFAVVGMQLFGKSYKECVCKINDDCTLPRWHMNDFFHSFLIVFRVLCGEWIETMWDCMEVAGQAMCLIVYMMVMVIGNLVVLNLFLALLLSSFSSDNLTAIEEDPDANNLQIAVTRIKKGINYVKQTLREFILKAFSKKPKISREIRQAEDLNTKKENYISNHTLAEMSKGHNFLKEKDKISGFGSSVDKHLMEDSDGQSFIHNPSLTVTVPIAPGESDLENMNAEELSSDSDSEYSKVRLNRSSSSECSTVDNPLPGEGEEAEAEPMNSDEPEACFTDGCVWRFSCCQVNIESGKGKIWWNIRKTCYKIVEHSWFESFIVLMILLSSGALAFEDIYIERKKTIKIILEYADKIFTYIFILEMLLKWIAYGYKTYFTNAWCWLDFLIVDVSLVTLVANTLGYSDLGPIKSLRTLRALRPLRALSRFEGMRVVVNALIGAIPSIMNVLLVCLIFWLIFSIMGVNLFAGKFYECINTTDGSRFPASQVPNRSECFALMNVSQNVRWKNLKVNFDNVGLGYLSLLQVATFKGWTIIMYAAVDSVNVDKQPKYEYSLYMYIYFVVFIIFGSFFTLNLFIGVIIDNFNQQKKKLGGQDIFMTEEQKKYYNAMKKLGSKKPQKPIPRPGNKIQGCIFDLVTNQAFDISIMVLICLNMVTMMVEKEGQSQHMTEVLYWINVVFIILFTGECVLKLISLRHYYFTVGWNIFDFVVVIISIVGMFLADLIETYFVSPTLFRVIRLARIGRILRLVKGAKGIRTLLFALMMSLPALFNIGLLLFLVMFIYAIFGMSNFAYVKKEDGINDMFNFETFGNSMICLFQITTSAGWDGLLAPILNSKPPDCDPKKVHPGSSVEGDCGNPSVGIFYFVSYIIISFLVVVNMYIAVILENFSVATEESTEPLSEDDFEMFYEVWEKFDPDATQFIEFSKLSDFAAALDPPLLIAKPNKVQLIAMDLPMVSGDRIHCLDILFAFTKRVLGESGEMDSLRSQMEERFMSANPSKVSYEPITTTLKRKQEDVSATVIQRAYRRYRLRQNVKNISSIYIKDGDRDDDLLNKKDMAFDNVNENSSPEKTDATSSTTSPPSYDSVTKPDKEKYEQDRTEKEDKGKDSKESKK
T2 sequence (Q07699 19-218 partner): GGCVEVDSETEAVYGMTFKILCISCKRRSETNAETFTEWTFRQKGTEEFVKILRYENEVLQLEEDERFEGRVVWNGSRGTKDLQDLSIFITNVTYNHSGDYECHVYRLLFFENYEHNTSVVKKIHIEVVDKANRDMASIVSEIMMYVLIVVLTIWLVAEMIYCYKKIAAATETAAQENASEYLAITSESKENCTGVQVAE

T1 sequence (Q15858 whole entry P610T): as the sequence (Q15858 whole entry) above, with P610T counted along it

Compound: CCCCCc1cc(O)c2c(c1)OC(C)(C)c1ccc(C)cc1-2 [CBN, Cannabinol]
- automated patch-clamp, steady-state inactivation shift with 5 s pre-pulse [1]: CBN hyperpolarized the SSI curves in both WT and P610T (Fig. S1)
- IC50 [2]: 10.7 µM

— article PMC10805714, “Functionally-selective inhibition of threshold sodium currents and excitability in dorsal root ganglion neurons by cannabinol” (Communications Biology, 2024)
